One series has as its system S. aureus B9. Description: microbe, parasite or virus in culture. Particulars: B9. The text has this:
(§1) The strains of E. coli ATCC 25922 and S. aureus ATCC 25923 were purchased from the American Type Culture Collection (ATCC, Manassas, VA, United States). The strains of E. coli W13, E. coli IF4, E. coli 2, and E. coli 17 were individually isolated from the livers of diseased chickens infected by E. coli. The strains of S. aureus B5, S. aureus B9, S. aureus B54, and S. aureus B63 were individually isolated from the milk of cows with mastitis. These clinical isolates were all identified by the VITEK-32 system (bioMérieux, France) and PCR amplification sequencing.
(§2) MICs of OaBac5mini, amoxicillin, kanamycin, florfenicol and tetracycline were determined using the two-fold broth microdilution method according to the Clinical and Laboratory Standards Institute (CLSI) guidance ([21]). MIC values of the tested antibacterial agents were determined on three independent occasions. Escherichia coli ATCC 25922 was used as the quality control in all the susceptibility tests.

In another series the test system is S. aureus B54. Kind of series: microbe, parasite or virus in culture. The note with it: B54.
Source text: as §1, §2

Another series has as its system E. coli IF4. Kind of series: microbe, parasite or virus in culture. The note with it: IF4.
Source text: as §1, §2

The subject of a further series is E. coli 2. Description: microbe, parasite or virus in culture. The note with it: 2.
Source text: as §1, §2

The next series concerns S. aureus B63. Kind of series: microbe, parasite or virus in culture. Particulars: B63.
Source text: as §1, §2

The next series relates to E. coli W13. Kind of series: microbe, parasite or virus in culture. Particulars: W13.
Source text: as §1, §2

In a further series the test system is S. aureus B5. Description: microbe, parasite or virus in culture. The note with it: B5.
Source text: as §1, §2

For another series, the system named is E. coli 17. Description: microbe, parasite or virus in culture. The note with it: 17.
Source text: as §1, §2

Series [1] has as its system E. coli ATCC 25922. In kind it is cell-based, Escherichia coli.
The subject of series [2] is E. coli ATCC 25922. Kind of series: Permeability of the outer membrane (NPN uptake). The note with it: 25, 50, 100 and 200 μg/ml; 10 μM NPN; 60 min; P < 0.01; n = 3. In kind it is cell-based, Escherichia coli. How it is done: The NPN uptake assay was conducted following the instructions of […] and […] ([25]) with minor modifications. In brief, E. coli. […] Fluorescence units were monitored immediately using INFINITE 200 PRO (Infinite® 2000, TECAN, Austria) at the excitation wavelength of 350 nm and emission wavelength of 420 nm for 100 min at 5 min intervals. Experiments were performed in biological triplicate.

Series [3] concerns E. coli ATCC 25922. Description: Sensitivity to pH, temperature and repeated freeze-thawing (inhibition zone assay). The note with it: 50 μg/ml, inhibition zone assay against E. coli ATCC 25922, repeated three times. Type of series: physicochemical, Escherichia coli. The method, then:
The sensitivities of OaBac5mini to different pH, temperature, digestive enzymes, and repeated freeze-thawing conditions were determined using the inhibition zone assay as previously described ([23]). For pH sensitivity, OaBac5mini was diluted with each solution whose pH was individually adjusted to 2, 3, 4, 5, 6, 7, 8, 9, 10, 11 with HCl or NaOH, and incubated for 2 h, followed by adjusting the pH to 7 to end the reaction. For temperature sensitivity, the diluted peptide was incubated at 30, 40, 50, 60, 70, 80, 90, and 100°C for 30 min. To determine the digestive enzymes sensitivity, OaBac5mini was incubated with 100 μg/ml pepsin (in pH 2 sterile water, sigma, USA), 5–100 μg/ml trypsin (in pH 6.8 KH2PO4 buffer, sigma, USA) and 100 μg/ml protease K (Solarbio, China) at 37°C for 3 h, respectively. To end the reaction after incubation, the pepsin buffer was adjusted to pH 8, the trypsin solution and protease K solution were incubated at 95°C for 10 min. For repeated freeze-thawing sensitivity, OaBac5mini was frozen and then thawed at room temperature 0–12 times. All the final concentrations of OaBac5mini in sensitivity tests were 50 μg/ml. All experiments were repeated three times.

Series [4] concerns E. coli ATCC 25922. Kind of series: Integrity of the inner membrane (DiSC3(5)). Type of series: cell-based, Escherichia coli. Particulars: 25, 50, 100 and 200 μg/ml; 1 μM DiSC3(5); within 30 min; P < 0.05; n = 3. How it is done: If the membrane is depolarized or disrupted, DiSC3(5) is released into the aqueous medium and leads to increased fluorescence. The DiSC3(5) assay was conducted following the instruction of Sautrey et al. ([26]) with minor modifications. […] Fluorescence units were investigated immediately using INFINITE 200 PRO (Infinite® 2000, TECAN, Austria) at the excitation wavelength of 620 nm and emission wavelength of 670 nm for 30 min at 1 min intervals. Triple experiments were conducted with three individual clones of E. coli ATCC 25922.

“Also recorded” adds a separate entry of the source. Where no end group is shown, it is not given here.

Turning to RFRPPIRRPPIRPPFRPPFRPPVR [OaBac5mini], the “MIC against S. aureus B9” value in the series on S. aureus B9 is 250 µg/mL. In addition, the “MIC against S. aureus B54” value in the series on S. aureus B54 was found to be 250 µg/mL. Further, in the series with E. coli IF4, the “MIC against E. coli IF4” value worked out at 2.60 µg/mL. For the same sequence, the “MIC against E. coli 2” value in the series with E. coli 2 came to 1.95 µg/mL. Also, in the series on S. aureus B63, the “MIC against S. aureus B63” value worked out at 208.33 µg/mL. The “MIC against E. coli W13” value in the series with E. coli W13 turned out to be 3.26 µg/mL. In addition, the “MIC against S. aureus B5” value with S. aureus B5 is >250 µg/mL. For the same sequence, the “MIC against E. coli 17” value against E. coli 17 stood at 3.26 µg/mL. For the same sequence, the “Increase of MIC in the presence of physiological concentration of CaCl2” value in the series on E. coli ATCC 25922 [1] (2.5 mM CaCl2 versus MH broth alone, E. coli ATCC 25922) was “four-fold”. In the series on E. coli ATCC 25922 [1] (ATCC 25922), the “MIC against E. coli ATCC 25922 in MH broth” value came to 25 µg/mL, the “MIC against E. coli ATCC 25922 in MH broth + CaCl2” value was determined as 100 µg/mL, the “MIC against E. coli ATCC 25922 in MH broth + FeCl3” value turned out to be 16.67 µg/mL and the “MIC against E. coli ATCC 25922 in MH broth + KCl” value stood at 20.83 µg/mL. Also, in the series on E. coli ATCC 25922 [1] (ATCC 25922), the “MIC against E. coli ATCC 25922 in MH broth + MgCl2” value was 50 µg/mL, the “MIC against E. coli ATCC 25922 in MH broth + NH4Cl” value came to 12.5 µg/mL and the “MIC against E. coli ATCC 25922 in MH broth + NaCl” value came to 33.33 µg/mL. The “Average fluorescence intensity of NPN (outer membrane permeability) compared with the negative control” value in the series on E. coli ATCC 25922 [2] was “significantly increased”. Further, the “Antibacterial activity after treatment at high temperature” value with E. coli ATCC 25922 [3] (30-100°C for 30 min) is on record as “stable antibacterial activity”. For the same sequence, the “Antibacterial activity after repeated freeze-thawing” value with E. coli ATCC 25922 [3] (frozen and thawed at room temperature 0-12 times) is “stable antibacterial activity”. In addition, the “Antibacterial activity after treatment at different pH” value in the series on E. coli ATCC 25922 [3] (pH 2-11 (HCl or NaOH), 2 h, then adjusted to pH 7) was “stable antibacterial activity; also recorded: not significantly affected”. Besides, in the series with E. coli ATCC 25922 [4], the “Average fluorescence intensity of DiSC3(5) (inner membrane integrity)” value is “significantly increased”.

The values are drawn from PMC9995905, “Characteristics of antimicrobial peptide OaBac5mini and its bactericidal mechanism against Escherichia coli” (Frontiers in Veterinary Science, 2023).
